{
  "source": "patent US20260048138A1",
  "about": "“NOVEL PI3K AND/OR PIKK INHIBITORS, ANTIBODY-DRUG CONJUGATES COMPRISING THE SAME AND USES THEREOF” (HUTCHMED LIMITED, priority 2024, published 2026)",
  "data": [
    {"tested_on": "MDA-MB-453", "experiment": "Inhibition of cell proliferation by payloads in vitro (CCK-8)", "type": "cell-based", "conditions": "Homo sapiens, MDA-MB-453, 144 h, read-out: IC50, nM MDA-MB-453; payloads, proliferation, 6 days, CCK-8", "experimental": "(§1) The cells were added to a 96-well plate at 1.0×10^3 cells/well and 100 μL/well and incubated in a cell culture incubator at 37° C. and 5% CO2. The test compounds were diluted with a DMEM medium containing 2% DMSO (Sigma-Aldrich, Cat. No. 34869) in a 4-fold gradient to the corresponding concentrations. […] The final concentration of DMSO was 0.2%. The cells were incubated in a cell culture incubator at 37° C. and 5% CO2 for 6 days.\n(§2) After 6 days of culture, 10 μL/well of Cell Counting Kit-8 reagent (CCK-8, Dojindo, Cat. No. CK04) was added to the wells and mixed well with shaking. The cells were incubated in a cell culture incubator at 37° C. and 5% CO2 for 0.50-4.0 hours.\n(§3) The OD450 optical density value was read on an EnVision™ multi-function microplate reader (PerkinElmer), and the inhibition rates (%) of the compounds were calculated. Then, the half-maximal inhibitory concentration (IC50) values were obtained using the XLfit5 software (ID Business Solutions Limited). All samples were tested in duplicate wells.\n(§4) [formula] • wherein • OD450test compound represents the optical density value in the wells of the compounds to be tested; • OD450cell represents the optical density value in the wells of cell controls; • OD450background represents the optical density value in the wells of cell-free controls.", "units": {"IC50": "nM"}, "values": [
      {"smiles": "COc1ncc(-c2ccc3ncc4nnc(C5CCC5)n4c3c2)cc1NS(=O)(=O)N1CCNCC1", "note": "[Compound 4]", "IC50": 0.89},
      {"smiles": "COc1ncc(-c2ccc3ncc4c(c3c2)n(C2CCC2)c(=O)n4C)cc1NS(=O)(=O)N1CCNCC1", "note": "[Compound 5]", "IC50": 0.064},
      {"smiles": "COc1ncc(-c2ccc3ncc4c(c3c2)n(C)c(=O)n4C)cc1NS(=O)(=O)N1CCNCC1", "note": "[Compound 6]", "IC50": 0.25},
      {"smiles": "COc1ncc(-c2ccc3ncc4c(c3c2)n([C@H]2C[C@H](O)C2)c(=O)n4C)cc1NS(=O)(=O)N1CCNCC1", "note": "[Compound 7]", "IC50": 0.3},
      {"smiles": "COc1ncc(-c2ccc3ncc4c(c3c2)n([C@H]2C[C@H](CO)C2)c(=O)n4C)cc1NS(=O)(=O)N1CCNCC1", "note": "[Compound 8]", "IC50": 0.32},
      {"smiles": "COc1ncc(-c2ccc3ncc4c(c3c2)n(C2CC2)c(=O)n4C)cc1NS(=O)(=O)N1CCN(C)CC1", "note": "[Compound 10]", "IC50": 2.3},
      {"smiles": "COc1ncc(-c2ccc3ncc4c(c3c2)n(C2CC2)c(=O)n4C)cc1NS(=O)(=O)N1CC2CNCC2C1", "note": "(stereo not shown) [Compound 12]", "IC50": 3.3},
      {"smiles": "COc1ncc(-c2ccc3ncc4c(c3c2)C(C2CC2)N=N4)cc1NS(=O)(=O)N1CCNCC1", "note": "(stereo not shown) [Compound 13]", "IC50": 1.3},
      {"smiles": "COc1ncc(-c2ccc3ncc4c(c3c2)n(C2CC2)c(=O)n4C)cc1NS(=O)(=O)C1CCNCC1", "note": "[Compound 14]", "IC50": 0.39},
      {"smiles": "COc1ncc(-c2ccc3ncc4c(c3c2)n(C2CC2)c(=O)n4C)cc1NS(=O)(=O)N1CCC2(CC1)CNC2", "note": "[Compound 15]", "IC50": 14.9},
      {"smiles": "COc1ncc(-c2ccc3ncc4c(c3c2)n(C2COC2)c(=O)n4C)cc1NS(=O)(=O)N1CCNCC1", "note": "[Compound 16]", "IC50": 61.6},
      {"smiles": "COc1ncc(-c2ccc3ncc4ncn(C5CCC5)c4c3c2)cc1NS(=O)(=O)N1CCNCC1", "note": "[Compound 17]", "IC50": 1.8},
      {"smiles": "COc1ncc(-c2ccc3ncc4c(c3c2)n(C2CCCC2)c(=O)n4C)cc1NS(=O)(=O)N1CCNCC1", "note": "[Compound 19]", "IC50": 0.12},
      {"smiles": "COc1ncc(-c2ccc3ncc4nccn4c3c2)cc1NS(=O)(=O)N1CCNCC1", "note": "[Compound 21]", "IC50": 6.6},
      {"smiles": "COc1ncc(-c2ccc3ncc4c(c3c2)n(C2CC2)c(=O)n4C)cc1NS(=O)(=O)N1CCN(CCO)CC1", "note": "[Compound 22]", "IC50": 6.5}
    ]},
    {"tested_on": "MDA-MB-468", "experiment": "Inhibition of cell proliferation by payloads in vitro (CCK-8)", "type": "cell-based", "conditions": "Homo sapiens, MDA-MB-468, 144 h; payloads, proliferation, 6 days, CCK-8; read-out: IC50, nM MDA-MB-468", "experimental": "as §1, §2, §3, §4", "units": {"IC50": "nM"}, "values": [
      {"smiles": "COc1ncc(-c2ccc3ncc4nnc(C5CCC5)n4c3c2)cc1NS(=O)(=O)N1CCNCC1", "note": "[Compound 4]", "IC50": 0.71},
      {"smiles": "COc1ncc(-c2ccc3ncc4c(c3c2)n(C2CCC2)c(=O)n4C)cc1NS(=O)(=O)N1CCNCC1", "note": "[Compound 5]", "IC50": 0.09},
      {"smiles": "COc1ncc(-c2ccc3ncc4c(c3c2)n(C)c(=O)n4C)cc1NS(=O)(=O)N1CCNCC1", "note": "[Compound 6]", "IC50": 0.32},
      {"smiles": "COc1ncc(-c2ccc3ncc4c(c3c2)n([C@H]2C[C@H](O)C2)c(=O)n4C)cc1NS(=O)(=O)N1CCNCC1", "note": "[Compound 7]", "IC50": 0.22},
      {"smiles": "COc1ncc(-c2ccc3ncc4c(c3c2)n([C@H]2C[C@H](CO)C2)c(=O)n4C)cc1NS(=O)(=O)N1CCNCC1", "note": "[Compound 8]", "IC50": 0.21},
      {"smiles": "COc1ncc(-c2ccc3ncc4c(c3c2)n(C2CC2)c(=O)n4C)cc1NS(=O)(=O)N1CC2CNCC2C1", "note": "(stereo not shown) [Compound 12]", "IC50": 7.9},
      {"smiles": "COc1ncc(-c2ccc3ncc4c(c3c2)C(C2CC2)N=N4)cc1NS(=O)(=O)N1CCNCC1", "note": "(stereo not shown) [Compound 13]", "IC50": 1.8},
      {"smiles": "COc1ncc(-c2ccc3ncc4c(c3c2)n(C2CC2)c(=O)n4C)cc1NS(=O)(=O)C1CCNCC1", "note": "[Compound 14]", "IC50": 0.41},
      {"smiles": "COc1ncc(-c2ccc3ncc4c(c3c2)n(C2CC2)c(=O)n4C)cc1NS(=O)(=O)N1CCC2(CC1)CNC2", "note": "[Compound 15]", "IC50": 18.4},
      {"smiles": "COc1ncc(-c2ccc3ncc4c(c3c2)n(C2COC2)c(=O)n4C)cc1NS(=O)(=O)N1CCNCC1", "note": "[Compound 16]", "IC50": 91.4},
      {"smiles": "COc1ncc(-c2ccc3ncc4ncn(C5CCC5)c4c3c2)cc1NS(=O)(=O)N1CCNCC1", "note": "[Compound 17]", "IC50": 3.4},
      {"smiles": "COc1ncc(-c2ccc3ncc4c(c3c2)n(C2CCCC2)c(=O)n4C)cc1NS(=O)(=O)N1CCNCC1", "note": "[Compound 19]", "IC50": 0.055},
      {"smiles": "COc1ncc(-c2ccc3ncc4nccn4c3c2)cc1NS(=O)(=O)N1CCNCC1", "note": "[Compound 21]", "IC50": 4.9},
      {"smiles": "COc1ncc(-c2ccc3ncc4c(c3c2)n(C2CC2)c(=O)n4C)cc1NS(=O)(=O)N1CCN(CCO)CC1", "note": "[Compound 22]", "IC50": 9.2}
    ]},
    {"target": "T1, Human PIK3CA/PIK3R1 (p110α/p85α) recombinant protein (Homo sapiens, UniProt P42336)", "T1 construct": "His tag; purchased Invitrogen PV4788", "T1 sequence (P42336 whole entry)": "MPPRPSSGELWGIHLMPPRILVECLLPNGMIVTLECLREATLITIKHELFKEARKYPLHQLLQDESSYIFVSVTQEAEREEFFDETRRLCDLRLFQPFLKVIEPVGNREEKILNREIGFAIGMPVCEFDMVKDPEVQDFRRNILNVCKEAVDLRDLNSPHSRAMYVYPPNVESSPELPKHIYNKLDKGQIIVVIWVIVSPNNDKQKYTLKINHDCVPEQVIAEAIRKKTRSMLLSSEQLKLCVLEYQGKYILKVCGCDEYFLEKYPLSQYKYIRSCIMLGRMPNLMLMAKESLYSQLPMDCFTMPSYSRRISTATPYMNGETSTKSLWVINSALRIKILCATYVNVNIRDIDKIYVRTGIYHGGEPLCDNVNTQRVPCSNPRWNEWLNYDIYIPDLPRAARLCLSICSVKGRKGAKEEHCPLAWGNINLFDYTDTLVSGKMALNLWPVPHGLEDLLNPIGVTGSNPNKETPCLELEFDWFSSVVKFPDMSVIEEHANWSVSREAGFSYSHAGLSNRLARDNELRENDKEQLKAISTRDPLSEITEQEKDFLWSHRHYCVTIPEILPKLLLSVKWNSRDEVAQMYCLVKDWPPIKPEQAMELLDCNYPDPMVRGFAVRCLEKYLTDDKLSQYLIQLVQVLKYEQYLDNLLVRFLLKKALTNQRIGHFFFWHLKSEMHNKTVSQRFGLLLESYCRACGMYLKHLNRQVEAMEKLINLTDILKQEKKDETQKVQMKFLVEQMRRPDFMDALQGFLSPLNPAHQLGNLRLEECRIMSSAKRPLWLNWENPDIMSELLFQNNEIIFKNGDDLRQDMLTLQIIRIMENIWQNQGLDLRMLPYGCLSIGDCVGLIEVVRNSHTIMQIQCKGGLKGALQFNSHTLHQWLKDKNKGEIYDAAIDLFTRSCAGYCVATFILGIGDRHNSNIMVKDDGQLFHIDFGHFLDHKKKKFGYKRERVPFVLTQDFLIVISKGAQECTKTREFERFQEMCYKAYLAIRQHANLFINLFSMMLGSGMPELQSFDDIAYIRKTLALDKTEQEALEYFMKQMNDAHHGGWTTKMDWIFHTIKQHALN", "T1 sequence (P27986 whole entry partner)": "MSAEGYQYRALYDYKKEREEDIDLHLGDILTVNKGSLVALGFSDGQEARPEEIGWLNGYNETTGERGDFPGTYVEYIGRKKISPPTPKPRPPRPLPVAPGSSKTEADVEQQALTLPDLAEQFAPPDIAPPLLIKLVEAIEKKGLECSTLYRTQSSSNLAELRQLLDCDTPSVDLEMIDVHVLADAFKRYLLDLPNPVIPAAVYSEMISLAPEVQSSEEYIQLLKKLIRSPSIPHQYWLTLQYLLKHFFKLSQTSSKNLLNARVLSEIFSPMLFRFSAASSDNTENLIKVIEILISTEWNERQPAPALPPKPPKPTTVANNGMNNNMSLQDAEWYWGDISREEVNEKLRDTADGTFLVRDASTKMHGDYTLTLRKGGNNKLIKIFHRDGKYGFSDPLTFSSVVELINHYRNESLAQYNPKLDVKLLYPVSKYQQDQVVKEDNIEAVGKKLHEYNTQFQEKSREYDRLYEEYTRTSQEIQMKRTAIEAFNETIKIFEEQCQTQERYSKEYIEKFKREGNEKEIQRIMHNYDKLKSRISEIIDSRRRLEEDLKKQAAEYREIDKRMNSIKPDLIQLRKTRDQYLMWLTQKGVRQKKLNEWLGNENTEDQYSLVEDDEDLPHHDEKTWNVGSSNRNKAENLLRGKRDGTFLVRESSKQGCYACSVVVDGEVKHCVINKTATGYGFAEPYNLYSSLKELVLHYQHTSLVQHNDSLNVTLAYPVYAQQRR", "experiment": "PIK3CA/PIK3R1 (p110α/p85α) kinase activity, Transcreener ADP2 FP", "type": "biochemical", "conditions": "10 μM ATP, 30 μM PIP2:PS; read-out: PIK3CA/PIK3R1 (p110α/p85α) (Enzyme, IC50)", "experimental": "The complex formed by the binding of the ADP Alexa633 Tracer to the ADP2 antibody therein could produce fluorescence polarization. […] Assay is carried out according to the instruction of the kit. […] After that, 10 μl PIK3CA/PIK3R1 (p110α/p85α) enzyme solution was added to each well; then, 10 μl of a mixed solution of ATP and PIP2:PS lipid kinase substrate was added to each well, and the mixture was centrifuged at 1000 rpm for 60 seconds; Then, the 96-well plate was placed in a constant temperature incubator protected from light and incubated at room temperature for 1 hour. […] After the enzymatic reaction was completed, 25 μl of ADP detection mixture was added to the positive control group, 25 μl of ADP detection mixture without ADP^2 antibody was added to the negative control group, and 25 μl of ADP detection mixture without tracer-label ADP and ADP^2 antibody was added to the blank control group. Then centrifugation was performed at 1000 rpm for 60 seconds. The 96-well plate was placed in a constant temperature incubator protected from light, and incubated at room temperature for 1.5 hours. […] [formula] The inhibition rate was calculated using the formula as below: [formula]", "units": {"IC50": "nM"}, "values": [
      {"smiles": "COc1ncc(-c2ccc3ncc4c(c3c2)n(C2CCC2)c(=O)n4C)cc1NS(=O)(=O)N1CCNCC1", "note": "[Compound 5]", "IC50": 1.6},
      {"smiles": "COc1ncc(-c2ccc3ncc4c(c3c2)n([C@H]2C[C@H](O)C2)c(=O)n4C)cc1NS(=O)(=O)N1CCNCC1", "note": "[Compound 7]", "IC50": 0.5},
      {"smiles": "COc1ncc(-c2ccc3ncc4c(c3c2)n(C2CC2)c(=O)n4C)cc1NS(=O)(=O)C1CCNCC1", "note": "[Compound 14]", "IC50": 0.6},
      {"smiles": "COc1ncc(-c2ccc3ncc4c(c3c2)n(C2CCCC2)c(=O)n4C)cc1NS(=O)(=O)N1CCNCC1", "note": "[Compound 19]", "IC50": 1.4}
    ]},
    {"target": "T2, Human FRAP1 (mTOR) recombinant protein (Homo sapiens, UniProt P42345)", "T2 construct": "GST; purchased Invitrogen PV4753", "T2 sequence (P42345 1360-2549 limits assumed)": "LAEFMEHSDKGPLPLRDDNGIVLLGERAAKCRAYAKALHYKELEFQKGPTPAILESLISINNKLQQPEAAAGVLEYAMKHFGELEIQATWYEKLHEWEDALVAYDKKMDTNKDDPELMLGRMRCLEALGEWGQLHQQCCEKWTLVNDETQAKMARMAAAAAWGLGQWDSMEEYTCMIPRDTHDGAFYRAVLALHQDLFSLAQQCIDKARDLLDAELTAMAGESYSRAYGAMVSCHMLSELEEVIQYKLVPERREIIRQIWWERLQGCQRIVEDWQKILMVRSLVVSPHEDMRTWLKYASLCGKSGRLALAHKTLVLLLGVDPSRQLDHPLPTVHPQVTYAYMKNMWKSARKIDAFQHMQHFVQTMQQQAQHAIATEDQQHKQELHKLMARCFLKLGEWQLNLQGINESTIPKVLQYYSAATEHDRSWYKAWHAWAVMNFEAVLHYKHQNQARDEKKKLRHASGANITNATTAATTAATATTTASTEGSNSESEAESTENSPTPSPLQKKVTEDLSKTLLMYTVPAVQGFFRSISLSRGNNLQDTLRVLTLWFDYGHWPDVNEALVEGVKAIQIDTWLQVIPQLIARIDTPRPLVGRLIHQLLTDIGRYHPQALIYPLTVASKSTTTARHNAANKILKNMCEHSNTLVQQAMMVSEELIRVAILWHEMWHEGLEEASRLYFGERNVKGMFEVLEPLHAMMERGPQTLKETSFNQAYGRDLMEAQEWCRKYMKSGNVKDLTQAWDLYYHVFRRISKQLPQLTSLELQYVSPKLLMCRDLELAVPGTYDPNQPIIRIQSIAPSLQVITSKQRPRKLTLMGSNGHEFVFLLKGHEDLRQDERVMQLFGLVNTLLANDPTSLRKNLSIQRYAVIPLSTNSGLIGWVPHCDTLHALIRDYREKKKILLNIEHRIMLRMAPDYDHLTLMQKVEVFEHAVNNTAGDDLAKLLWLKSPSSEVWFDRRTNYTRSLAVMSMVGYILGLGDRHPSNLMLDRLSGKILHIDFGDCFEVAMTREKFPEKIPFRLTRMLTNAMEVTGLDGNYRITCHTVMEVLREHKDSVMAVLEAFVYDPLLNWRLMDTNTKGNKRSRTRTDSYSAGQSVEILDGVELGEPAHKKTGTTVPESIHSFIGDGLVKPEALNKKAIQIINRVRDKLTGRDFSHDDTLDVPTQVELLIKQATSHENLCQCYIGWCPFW", "experiment": "FRAP1 (mTOR) kinase activity, LanthaScreen TR-FRET", "type": "biochemical", "conditions": "10 μM ATP, 0.4 μM GFP-4EBP1; read-out: FRAP1 (mTOR) (Enzyme, IC50)", "experimental": "Determination of FRAP1 (mTOR) Kinase Activity • Human FRAP1 (mTOR) recombinant protein (GST tag): Invitrogen, Cat. No. PV4753; • GFP-4E-BP1: Thermo Scientific, Cat. No. PV4759; • LanthaScreenTM Tb-p4E-BP1 ([…]) antibody: Thermo Scientific, Cat. No. PV4755; • TR-FRET dilution buffer: Thermo Scientific, Cat. No. PV3574; • ATP solution (10 mM): Thermo Scientific, Cat. No. PV3227; • HEPES (1 M): Gibco, Cat. No. 15630-106; • EDTA (0.5 M), pH 8.0, RNase-free: Invitrogen, Cat. No. A[…]; • Manganese chloride solution: Sigma-Aldrich, Cat. No. M1787; • EGTA: Sigma-Aldrich, Cat. No. E4378; • TWEEN®20: Sigma-Aldrich, Cat. No. P2287; • DTT: Sigma-Aldrich, Cat. No. DTT-RO; • 384-well plate: Corning, Cat. No. 3676; • 384-well plate: Corning, Cat. No. 4514; • Envision multi-mode plate reader: PerkinElmer; 4EBP1 is the substrate of mTOR, and when mTOR is activated, it will phosphorylate […] of the 4EBP1 protein. LanthaScreenTM kinase assay is used to detect the amount of phosphorylated substrate GFP-4E-BP1 produced in kinase activity experiments, thereby judging the mTOR kinase activity, and through the strength of the kinase activity, distinguishing the inhibitory effects of different compounds on the activity of FRAP1 (mTOR) kinase. […] Then, the 384-well plate was placed in a constant temperature incubator protected from light and incubated at room temperature for 1 hour. […] The 384-well plate was taken out and the plate was read using an Envision multi-mode plate reader (the excitation light wavelength was 320 nm and the emission light wavelengths were 495 nm and 520 nm). The inhibition rate was calculated using the formula as below: [formula]", "units": {"IC50": "nM"}, "values": [
      {"smiles": "COc1ncc(-c2ccc3ncc4c(c3c2)n(C2CCC2)c(=O)n4C)cc1NS(=O)(=O)N1CCNCC1", "note": "[Compound 5]", "IC50": 7.5},
      {"smiles": "COc1ncc(-c2ccc3ncc4c(c3c2)n([C@H]2C[C@H](O)C2)c(=O)n4C)cc1NS(=O)(=O)N1CCNCC1", "note": "[Compound 7]", "IC50": 2.7},
      {"smiles": "COc1ncc(-c2ccc3ncc4c(c3c2)n(C2CC2)c(=O)n4C)cc1NS(=O)(=O)C1CCNCC1", "note": "[Compound 14]", "IC50": 11.2},
      {"smiles": "COc1ncc(-c2ccc3ncc4c(c3c2)n(C2CCCC2)c(=O)n4C)cc1NS(=O)(=O)N1CCNCC1", "note": "[Compound 19]", "IC50": 8.6}
    ]}
  ]
}
